Experimental data taken from ChEMBL document CHEMBL1138027, “Dimethoxybenzo[i]phenanthridine-12-carboxylic acid derivatives and 6H-dibenzo[c,h][2,6]naphthyridin-5-ones with potent topoisomerase I-targeting activity and cytotoxicity” (Bioorg Med Chem Lett, 2004).

Key:
[1] = Concentration required to inhibit cell proliferation by 50% in P388/CPT-45 tumor cell line; camptothecin resistant; format: functional; details: Mus musculus, P388CPT45
[2] = tested on: RPMI 8402; assay: Concentration required to inhibit cell proliferation in CPT-K5 tumor cell line; camptothecin resistant; format: functional, cell-based; details: Homo sapiens
[3] = tested on: KB 3-1; assay: Concentration required to inhibit cell proliferation by 50% in KB3-1 tumor cell line; format: functional, cell-based; details: Homo sapiens
[4] = tested on: P388; assay: Concentration required to inhibit cell proliferation in P388 tumor cell line; format: functional, cell-based; details: Mus musculus
[5] = tested on: KB 3-1; assay: Concentration required to inhibit cell proliferation by 50% in KBH5.0 tumor cell line; overexpress BCRP; format: functional, cell-based; details: Homo sapiens
[6] = molecular target: T1, DNA topoisomerase 1 (Homo sapiens) (UniProt P11387); assay: Relative effective concentration to cleave plasmid DNA with human topoisomerase I; compared to camptothecin=1
T1 sequence (whole entry): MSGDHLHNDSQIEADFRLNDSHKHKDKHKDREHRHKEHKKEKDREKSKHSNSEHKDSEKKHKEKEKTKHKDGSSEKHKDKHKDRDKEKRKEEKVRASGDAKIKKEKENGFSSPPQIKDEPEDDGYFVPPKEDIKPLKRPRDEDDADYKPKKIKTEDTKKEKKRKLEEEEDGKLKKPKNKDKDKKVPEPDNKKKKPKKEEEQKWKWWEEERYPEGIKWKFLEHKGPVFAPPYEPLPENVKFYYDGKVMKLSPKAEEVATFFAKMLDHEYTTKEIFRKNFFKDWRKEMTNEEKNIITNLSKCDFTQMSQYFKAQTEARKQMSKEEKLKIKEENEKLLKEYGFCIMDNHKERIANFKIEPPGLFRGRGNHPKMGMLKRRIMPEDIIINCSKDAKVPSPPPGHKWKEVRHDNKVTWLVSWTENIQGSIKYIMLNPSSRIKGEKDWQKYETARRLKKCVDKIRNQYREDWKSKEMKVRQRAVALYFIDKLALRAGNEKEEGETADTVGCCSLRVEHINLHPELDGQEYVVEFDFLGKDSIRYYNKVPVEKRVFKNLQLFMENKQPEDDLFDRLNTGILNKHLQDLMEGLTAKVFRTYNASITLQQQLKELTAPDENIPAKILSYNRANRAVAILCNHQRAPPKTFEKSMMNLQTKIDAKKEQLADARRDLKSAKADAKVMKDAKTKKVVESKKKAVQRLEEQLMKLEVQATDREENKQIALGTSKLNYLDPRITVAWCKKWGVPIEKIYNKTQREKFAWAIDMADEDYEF

[7] = tested on: RPMI 8402; assay: Concentration required to inhibit cell proliferation in […] tumor cell line; format: functional, cell-based; details: Homo sapiens
[8] = tested on: KB; assay: Concentration required to inhibit cell proliferation by 50% in KBV-1 tumor cell line; overexpress MDR1; format: functional, cell-based; details: Homo sapiens
[9] = tested on: KB 3-1; assay: Concentration required to inhibit cell proliferation in KB3-1 tumor cell line; format: functional, cell-based; details: Homo sapiens
[10] = tested on: KB; assay: Concentration required to inhibit cell proliferation in KBV-1 tumor cell line; overexpress MDR1; format: functional, cell-based; details: Homo sapiens
[11] = Concentration required to inhibit cell proliferation in P388/CPT-45 tumor cell line; camptothecin resistant; format: functional; details: Mus musculus, P388CPT45
[12] = tested on: KB 3-1; assay: Concentration required to inhibit cell proliferation in KBH5.0 tumor cell line; overexpress BCRP; format: functional, cell-based; details: Homo sapiens

CCOC(=O)c1cc2c3cc4c(cc3ncc2c2cc(OC)c(OC)cc12)OCO4
IC50 [1]: 3250 nM
IC50 [2]: > 10000 nM
IC50 [3]: 40 nM
IC50 [4]: 40 nM
IC50 [5]: 110 nM
REC [6]: 12
IC50 [7]: 80 nM
IC50 [8]: 340 nM

COc1cc2c(C(=O)NCCN(C)C)cc3c4cc5c(cc4ncc3c2cc1OC)OCO5
IC50 [1]: 260 nM
IC50 [2]: 1000 nM
IC50 [3]: 1 nM
IC50 [4]: 2 nM
IC50 [5]: 30 nM
REC [6]: 0.5
IC50 [7]: 3 nM
IC50 [8]: 100 nM

COc1cc2c(C(=O)OCCN(C)C)cc3c4cc5c(cc4ncc3c2cc1OC)OCO5
IC50 [1]: 20 nM
IC50 [2]: 730 nM
IC50 [3]: 30 nM
IC50 [4]: 10 nM
IC50 [5]: 70 nM
REC [6]: 5
IC50 [7]: 30 nM
IC50 [8]: 220 nM

COc1cc2c3cnc4cc5c(cc4c3c(=O)n(CCN3CCCCC3)c2cc1OC)OCO5
IC50 [2]: 1500 nM
IC50 [4]: 3 nM
IC50 [9]: 6 nM
REC [6]: 0.1
IC50 [7]: 1 nM
IC50 [10]: 6 nM
IC50 [11]: 230 nM
IC50 [12]: 7 nM

COc1cc2c3cnc4cc5c(cc4c3c(=O)n(CCN(C)C)c2cc1OC)OCO5
IC50 [1]: 200 nM
IC50 [2]: 210 nM
IC50 [3]: 2 nM
IC50 [4]: 2 nM
IC50 [5]: 4 nM
REC [6]: 3
IC50 [7]: 0.7 nM
IC50 [8]: 4 nM

CCN(CC)CCn1c(=O)c2c3cc4c(cc3ncc2c2cc(OC)c(OC)cc21)OCO4
IC50 [2]: 900 nM
IC50 [4]: 3 nM
IC50 [9]: 3 nM
REC [6]: 0.7
IC50 [7]: 3 nM
IC50 [10]: 10 nM
IC50 [11]: 30 nM
IC50 [12]: 5 nM

CC[C@@]1(O)C(=O)OCc2c1cc1n(c2=O)Cc2cc3ccccc3nc2-1 [CAMPTOTHECIN]
IC50 [2]: > 10000 nM
IC50 [4]: 10 nM
IC50 [9]: 10 nM
REC [6]: 1
IC50 [7]: 6 nM
IC50 [10]: 20 nM
IC50 [11]: > 10000 nM
IC50 [12]: 20 nM

CC[C@@]1(O)C(=O)OCc2c1cc1n(c2=O)Cc2cc3c(CN(C)C)c(O)ccc3nc2-1 [TOPOTECAN]
IC50 [2]: > 10000 nM
IC50 [4]: 40 nM
IC50 [9]: 40 nM
REC [6]: 5
IC50 [7]: 20 nM
IC50 [10]: 440 nM
IC50 [11]: > 10000 nM
IC50 [12]: 440 nM

COc1cc2c(C(=O)OCCCN(C)C)cc3c4cc5c(cc4ncc3c2cc1OC)OCO5
IC50 [1]: 140 nM
IC50 [2]: 1500 nM
IC50 [3]: 500 nM
IC50 [4]: 110 nM
IC50 [5]: 600 nM
REC [6]: 7
IC50 [7]: 220 nM
IC50 [8]: 2000 nM

COc1cc2c(C(=O)NCCCN(C)C)cc3c4cc5c(cc4ncc3c2cc1OC)OCO5
IC50 [1]: 340 nM
IC50 [2]: 2050 nM
IC50 [3]: 40 nM
IC50 [4]: 30 nM
IC50 [5]: 500 nM
REC [6]: 30
IC50 [7]: 50 nM
IC50 [8]: 4500 nM

COc1cc2c3cnc4cc5c(cc4c3c(=O)n(CCCN(C)C)c2cc1OC)OCO5
IC50 [2]: 200 nM
IC50 [4]: 3 nM
IC50 [9]: 3 nM
REC [6]: 3
IC50 [7]: 0.5 nM
IC50 [10]: 7 nM
IC50 [11]: 20 nM
IC50 [12]: 4 nM

COc1cc2c(=O)n(CCN(C)C)c3c4cc5c(cc4ncc3c2cc1OC)OCO5
IC50 [2]: 900 nM
IC50 [4]: 1 nM
IC50 [9]: 5 nM
IC50 [10]: 5 nM
IC50 [11]: 230 nM
IC50 [12]: 6 nM
